# ChEMBL document CHEMBL1201862, “PubChem BioAssay data set” (2004)
# Calls of active or inactive are those of the source.
# How the values were obtained:
# [1] = biological target: T1, Nuclear receptor subfamily 0 group B member 1 (Homo sapiens, UniProt P51843); format: functional, cell-based;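 also: HEK293T cells transfected with SF-1 and DAX-1 plus StAR promoter luciferase reporter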
# T1 sequence (P51843 whole entry): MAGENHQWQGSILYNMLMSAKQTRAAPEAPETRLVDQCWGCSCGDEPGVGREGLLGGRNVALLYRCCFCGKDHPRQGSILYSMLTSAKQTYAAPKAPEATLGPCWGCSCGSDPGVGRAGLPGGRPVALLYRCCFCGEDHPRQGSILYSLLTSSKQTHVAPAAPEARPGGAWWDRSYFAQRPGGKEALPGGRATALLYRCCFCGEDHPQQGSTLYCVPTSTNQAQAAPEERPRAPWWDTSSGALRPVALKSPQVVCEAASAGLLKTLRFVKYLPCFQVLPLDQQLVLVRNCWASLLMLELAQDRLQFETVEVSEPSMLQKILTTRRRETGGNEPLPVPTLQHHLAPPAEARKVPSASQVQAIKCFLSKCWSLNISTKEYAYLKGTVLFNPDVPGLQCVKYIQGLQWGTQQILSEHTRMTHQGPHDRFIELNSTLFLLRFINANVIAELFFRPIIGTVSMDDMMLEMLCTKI
# cells [2] = format: functional, cell-based
# [3] = biological target: T2, Heat shock factor protein 1 (Mus musculus, UniProt P38532); test: decrease of HSF1-responsive luciferase luminescence – cell-based, NIH3T3, dose retest, confirmation (AID 2382); format: functional;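 also: NIH3T3 fibroblasts with HSF1-driven luciferase reporter stressed by proteasome inhibitor MG132; luminescence from HSF1-driven luciferase expression after 8 hours of MG132 stress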
# T2 sequence (P38532 whole entry): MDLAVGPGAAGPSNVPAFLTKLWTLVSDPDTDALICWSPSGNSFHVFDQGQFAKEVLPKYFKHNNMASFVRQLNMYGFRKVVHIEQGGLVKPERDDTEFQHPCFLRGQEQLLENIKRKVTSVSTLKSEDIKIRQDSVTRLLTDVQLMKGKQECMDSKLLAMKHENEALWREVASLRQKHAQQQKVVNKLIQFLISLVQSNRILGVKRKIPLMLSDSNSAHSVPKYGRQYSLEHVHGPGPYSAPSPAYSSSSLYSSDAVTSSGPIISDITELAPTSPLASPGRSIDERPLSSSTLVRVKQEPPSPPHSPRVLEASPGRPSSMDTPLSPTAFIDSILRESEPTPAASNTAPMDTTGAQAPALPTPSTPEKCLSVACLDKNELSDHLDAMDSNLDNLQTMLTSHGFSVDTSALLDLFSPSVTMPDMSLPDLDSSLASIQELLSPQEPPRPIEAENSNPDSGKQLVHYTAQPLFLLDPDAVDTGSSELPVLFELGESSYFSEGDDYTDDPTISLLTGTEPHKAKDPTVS
# [4] = Luminescence Cell-Based Dose Confirmation HTS to Identify Inhibitors of Platelet Dense Granule Release. [Related pubchem assays: 1663 (Primary HTS), 1678 (Summary of Project)]; format: functional
# [5] = inhibition of ARNT PAS-B/TACC3 complex formation – biochemical, AlphaScreen, cherry-picked samples, confirmation (AID 651703); format: functional, Homo sapiens;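 also: His-tagged ARNT PAS-B domain paired with GST-TACC3 E629A dimer coactivator fragment; potency of inhibitors that break up the complex and lower AlphaScreen signal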
# [6] = biological target: Luciferin 4-monooxygenase (Photinus pyralis, UniProt P08659); test: inhibition of purified Photinus pyralis luciferase – biochemical, luminescence, dose response (AID 1891)
# Chain of Luciferin 4-monooxygenase (P08659 whole entry): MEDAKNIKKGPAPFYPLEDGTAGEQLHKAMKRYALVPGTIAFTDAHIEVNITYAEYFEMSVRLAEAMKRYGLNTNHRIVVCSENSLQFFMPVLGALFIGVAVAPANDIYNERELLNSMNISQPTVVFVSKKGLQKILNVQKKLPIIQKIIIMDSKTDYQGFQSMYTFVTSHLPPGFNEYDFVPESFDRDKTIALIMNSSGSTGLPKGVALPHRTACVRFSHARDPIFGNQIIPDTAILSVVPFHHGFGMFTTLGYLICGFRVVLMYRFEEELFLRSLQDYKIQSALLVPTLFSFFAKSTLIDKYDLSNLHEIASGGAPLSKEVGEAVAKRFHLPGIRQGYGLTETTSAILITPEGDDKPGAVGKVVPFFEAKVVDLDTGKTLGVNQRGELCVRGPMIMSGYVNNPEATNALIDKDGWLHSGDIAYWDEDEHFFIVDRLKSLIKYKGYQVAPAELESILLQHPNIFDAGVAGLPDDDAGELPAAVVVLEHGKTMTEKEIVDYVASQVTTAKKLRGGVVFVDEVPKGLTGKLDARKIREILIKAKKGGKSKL
# [7] = biological target: FAD-linked sulfhydryl oxidase ALR (Homo sapiens, UniProt P55789); test: ALR-catalysed DTT oxidation blockers – biochemical, H2O2 detection, luminescence, cherry-pick, dose response (AID 493248)
# Chain of FAD-linked sulfhydryl oxidase ALR (P55789 whole entry): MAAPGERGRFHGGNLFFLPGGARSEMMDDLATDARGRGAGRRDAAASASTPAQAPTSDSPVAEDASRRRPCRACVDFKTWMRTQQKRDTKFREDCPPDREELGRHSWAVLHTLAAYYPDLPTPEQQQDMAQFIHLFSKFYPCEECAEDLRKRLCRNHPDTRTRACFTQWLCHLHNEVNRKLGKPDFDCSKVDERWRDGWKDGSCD
# [8] = potency of ADAM10 substrate cleavage blockers – biochemical, QFRET, dose response (AID 743254);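 also: ADAM10 enzyme with the DM2 quenched FRET peptide as substrate; EDANS fluorescence gain as the protease cuts the substrate; inhibitor potency against ADAM10 proteolytic activity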
# [9] = biological target: Disintegrin and metalloproteinase domain-containing protein 17 (Homo sapiens, UniProt P78536); test: inhibition of ADAM17 substrate cleavage – biochemical, quenched FRET substrate, counter-screen for ADAM10 exosite inhibitor project, dose response (AID 743253)
# Chain of Disintegrin and metalloproteinase domain-containing protein 17 (P78536 whole entry, the tested form may be a part): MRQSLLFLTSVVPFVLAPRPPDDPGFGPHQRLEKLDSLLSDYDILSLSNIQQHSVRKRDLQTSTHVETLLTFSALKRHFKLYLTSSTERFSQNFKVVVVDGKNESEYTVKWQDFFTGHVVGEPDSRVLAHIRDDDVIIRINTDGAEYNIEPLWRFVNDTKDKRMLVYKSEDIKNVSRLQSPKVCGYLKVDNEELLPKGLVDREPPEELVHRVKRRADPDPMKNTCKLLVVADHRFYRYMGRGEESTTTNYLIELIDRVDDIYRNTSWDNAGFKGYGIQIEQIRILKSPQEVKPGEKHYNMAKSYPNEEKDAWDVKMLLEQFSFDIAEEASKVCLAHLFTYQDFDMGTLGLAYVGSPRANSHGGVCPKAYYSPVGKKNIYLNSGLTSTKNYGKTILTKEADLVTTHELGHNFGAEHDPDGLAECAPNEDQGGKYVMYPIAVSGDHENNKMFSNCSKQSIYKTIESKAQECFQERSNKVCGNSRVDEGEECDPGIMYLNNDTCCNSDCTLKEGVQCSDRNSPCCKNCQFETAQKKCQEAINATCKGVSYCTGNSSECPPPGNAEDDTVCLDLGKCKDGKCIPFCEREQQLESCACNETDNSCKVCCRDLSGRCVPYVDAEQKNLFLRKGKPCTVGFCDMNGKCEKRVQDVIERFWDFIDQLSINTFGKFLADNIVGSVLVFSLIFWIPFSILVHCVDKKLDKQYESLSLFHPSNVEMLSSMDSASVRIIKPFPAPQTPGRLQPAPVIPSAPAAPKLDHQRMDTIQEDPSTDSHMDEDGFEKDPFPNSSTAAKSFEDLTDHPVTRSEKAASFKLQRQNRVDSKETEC
# [10] = biological target: Ras and Rab interactor 1/Tyrosine-protein kinase ABL1 (Homo sapiens, UniProt P00519+Q13671); format: functional;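 also: biochemical TR-FRET dose-response test measuring inhibition of binding between Rin1 and Abl proteins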
# Chain of Ras and Rab interactor 1/Tyrosine-protein kinase ABL1 (P00519 whole entry): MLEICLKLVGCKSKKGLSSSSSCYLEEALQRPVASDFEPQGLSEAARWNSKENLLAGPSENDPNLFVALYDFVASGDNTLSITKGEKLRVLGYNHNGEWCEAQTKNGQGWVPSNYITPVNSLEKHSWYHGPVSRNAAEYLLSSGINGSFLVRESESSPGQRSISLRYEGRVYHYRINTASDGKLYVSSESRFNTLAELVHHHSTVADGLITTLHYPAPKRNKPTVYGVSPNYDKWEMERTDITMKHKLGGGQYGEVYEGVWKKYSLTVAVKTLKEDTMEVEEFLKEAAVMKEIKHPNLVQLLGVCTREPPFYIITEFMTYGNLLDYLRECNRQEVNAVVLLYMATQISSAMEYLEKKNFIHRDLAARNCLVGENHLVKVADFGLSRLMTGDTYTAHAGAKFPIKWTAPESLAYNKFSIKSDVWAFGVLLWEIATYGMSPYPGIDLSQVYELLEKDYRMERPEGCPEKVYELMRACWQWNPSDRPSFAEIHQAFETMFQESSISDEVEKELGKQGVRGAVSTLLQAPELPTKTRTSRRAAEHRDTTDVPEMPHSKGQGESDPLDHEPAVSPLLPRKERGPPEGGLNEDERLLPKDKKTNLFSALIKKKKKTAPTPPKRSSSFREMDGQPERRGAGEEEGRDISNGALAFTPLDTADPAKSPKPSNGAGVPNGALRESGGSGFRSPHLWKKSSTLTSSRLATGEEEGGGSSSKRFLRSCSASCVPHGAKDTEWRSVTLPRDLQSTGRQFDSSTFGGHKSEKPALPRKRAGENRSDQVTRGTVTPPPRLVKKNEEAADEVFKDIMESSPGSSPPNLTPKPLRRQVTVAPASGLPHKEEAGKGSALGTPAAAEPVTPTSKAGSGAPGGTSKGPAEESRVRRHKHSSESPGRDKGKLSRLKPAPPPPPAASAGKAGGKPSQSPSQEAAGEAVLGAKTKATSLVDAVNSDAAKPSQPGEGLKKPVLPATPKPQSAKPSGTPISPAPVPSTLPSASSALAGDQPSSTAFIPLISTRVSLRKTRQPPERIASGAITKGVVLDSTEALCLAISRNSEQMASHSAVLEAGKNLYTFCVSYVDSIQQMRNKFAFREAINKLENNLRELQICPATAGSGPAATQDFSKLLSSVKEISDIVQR
# Chain of Ras and Rab interactor 1/Tyrosine-protein kinase ABL1 (Q13671 whole entry): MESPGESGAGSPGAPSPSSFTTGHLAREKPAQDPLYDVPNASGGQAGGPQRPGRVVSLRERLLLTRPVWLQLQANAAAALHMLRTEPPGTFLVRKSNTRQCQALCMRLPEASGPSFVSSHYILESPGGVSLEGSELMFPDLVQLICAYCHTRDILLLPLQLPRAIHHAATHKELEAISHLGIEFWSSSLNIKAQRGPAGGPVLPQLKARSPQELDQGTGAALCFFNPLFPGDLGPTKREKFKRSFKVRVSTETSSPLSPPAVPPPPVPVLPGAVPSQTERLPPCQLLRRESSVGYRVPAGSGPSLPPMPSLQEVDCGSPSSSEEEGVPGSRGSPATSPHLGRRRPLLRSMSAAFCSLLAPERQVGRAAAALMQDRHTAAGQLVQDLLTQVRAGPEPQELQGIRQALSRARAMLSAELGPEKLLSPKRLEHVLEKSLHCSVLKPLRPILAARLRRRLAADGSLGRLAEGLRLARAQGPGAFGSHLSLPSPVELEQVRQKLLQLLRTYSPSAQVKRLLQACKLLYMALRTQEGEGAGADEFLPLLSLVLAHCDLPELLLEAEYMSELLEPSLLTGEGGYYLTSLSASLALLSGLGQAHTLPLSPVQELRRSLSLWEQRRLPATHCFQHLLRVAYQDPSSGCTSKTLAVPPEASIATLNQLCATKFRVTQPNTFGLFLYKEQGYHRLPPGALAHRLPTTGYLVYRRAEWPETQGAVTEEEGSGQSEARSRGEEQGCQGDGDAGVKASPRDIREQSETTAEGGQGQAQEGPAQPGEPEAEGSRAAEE
# [11] = T. cruzi growth inhibition in host cells, dose response, cell-based, plate reader, dry powder, set 2 (AID 652275); format: functional
# cells [12] = format: functional, cell-based; remark: listed apart in the source
# [13] = biological target: T3, Trace amine-associated receptor 1 (Homo sapiens, UniProt Q96RJ0); test: Counterscreen for agonists of the human trace amine associated receptor 1 (hTAAR1): Fluorescence-based cell-based high throughput dose response assay to identify hTAAR1 agonist that also desensitize TAAR1 receptor response.; format: functional
# T3 sequence (Q96RJ0 whole entry): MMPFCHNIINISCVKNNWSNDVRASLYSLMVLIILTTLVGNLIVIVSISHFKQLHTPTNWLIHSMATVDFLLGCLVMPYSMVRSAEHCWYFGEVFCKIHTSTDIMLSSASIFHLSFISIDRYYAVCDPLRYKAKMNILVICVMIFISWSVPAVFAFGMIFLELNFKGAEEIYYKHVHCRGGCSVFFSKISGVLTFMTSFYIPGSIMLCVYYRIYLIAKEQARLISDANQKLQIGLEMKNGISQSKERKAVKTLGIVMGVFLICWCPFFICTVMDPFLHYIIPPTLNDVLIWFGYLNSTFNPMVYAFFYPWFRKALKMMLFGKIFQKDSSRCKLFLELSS
# cells [14] = format: functional, cell-based; remark: listed apart in the source
# [15] = biological target: T3, Trace amine-associated receptor 1; test: Fluorescence-based cell-based high throughput dose response assay to identify agonists of the human trace amine associated receptor 1 (TAAR1).; format: functional
# Protein Wnt-3a = Protein Wnt-3a (Mus musculus, UniProt P27467); test: antagonism of Wnt3a pathway luciferase reporter – Wnt-LIGHT cells, luminescence, selectivity assay for Gli-SUFU antagonist project, dose response (AID 651570); format: functional; conditions: read-out: IC50_Mean;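 also: Wnt-LIGHT reporter cells stimulated with conditioned medium from Wnt3a-producing cells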
# [16] = non-specific 3'UTR reporter inhibition in Clone20-Shn3RL – cell-based, Renilla luciferase, cherry-picked, counter-screen for Shn3 inhibitor project, dose response (AID 624133); format: functional
# [17] = reduction of Shn3 3'UTR-driven luciferase in osteoblasts – cell-based, Clone20 osteoblasts, firefly luciferase, cherry-picked, dose response (AID 624132); format: functional;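 also: firefly luciferase luminescence from reporter carrying the Shn3 3'UTR in osteoblasts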
# [18] = loss of viability in HepG2 cells – cell-based, CellTiter-Glo, cherry-picked, cytotoxicity control for Shn3 inhibitor project, dose response (AID 624134); format: functional
# [19] = biological target: 5-hydroxytryptamine receptor 2A (Mus musculus, UniProt P35363); format: functional, cell-based;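 also: CHO-K1 cells with tagged receptor and beta-arrestin; agonist potency measured as compound-induced activation of the receptor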
# Mu-type opioid receptor = Mu-type opioid receptor (Homo sapiens, UniProt P35372); format: functional, cell-based;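 also: U2OS cells with beta-arrestin recruitment to OPRM1 by beta-gal complementation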
# Chain of Mu-type opioid receptor (P35372 whole entry): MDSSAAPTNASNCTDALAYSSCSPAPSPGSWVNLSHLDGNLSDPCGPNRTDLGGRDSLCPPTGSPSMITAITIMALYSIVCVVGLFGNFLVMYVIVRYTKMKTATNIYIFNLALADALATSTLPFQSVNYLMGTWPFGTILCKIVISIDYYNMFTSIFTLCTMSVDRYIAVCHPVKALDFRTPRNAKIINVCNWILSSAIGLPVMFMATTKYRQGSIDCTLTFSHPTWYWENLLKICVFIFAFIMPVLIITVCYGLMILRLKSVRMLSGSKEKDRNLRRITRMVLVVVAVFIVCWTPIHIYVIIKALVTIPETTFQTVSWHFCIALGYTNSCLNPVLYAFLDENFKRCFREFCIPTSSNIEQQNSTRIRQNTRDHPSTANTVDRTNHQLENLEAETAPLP
# Steroidogenic factor 1 = Steroidogenic factor 1 (Homo sapiens, UniProt Q13285); test: Counterscreen for inverse agonists of the liver receptor homolog-1 (LRH-1; NR5A2): Luminescence-based cell-based high throughput dose response assay to identify inverse agonists of the Steroidogenic Factor 1 Nuclear Receptor (SF1; NR5A1).; format: functional
# Chain of Steroidogenic factor 1 (Q13285 whole entry): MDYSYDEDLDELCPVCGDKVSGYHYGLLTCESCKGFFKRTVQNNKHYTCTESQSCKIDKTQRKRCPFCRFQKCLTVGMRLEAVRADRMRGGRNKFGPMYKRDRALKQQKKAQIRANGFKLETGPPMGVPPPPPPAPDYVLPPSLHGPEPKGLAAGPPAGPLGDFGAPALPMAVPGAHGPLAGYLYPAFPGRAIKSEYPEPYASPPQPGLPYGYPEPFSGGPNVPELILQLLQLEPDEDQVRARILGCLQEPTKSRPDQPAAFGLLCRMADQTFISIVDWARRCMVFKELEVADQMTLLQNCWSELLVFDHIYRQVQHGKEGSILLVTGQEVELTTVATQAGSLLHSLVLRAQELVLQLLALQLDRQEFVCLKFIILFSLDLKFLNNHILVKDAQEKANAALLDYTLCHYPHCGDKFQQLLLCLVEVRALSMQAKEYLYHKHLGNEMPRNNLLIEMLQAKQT
# [20] = nonselective StAR promoter luciferase inhibitors – cell-based, luminescence, luciferase reporter, counter-screen for LRH-1 inverse agonist project, dose response (AID 651969); format: functional
# [21] = biological target: Nuclear receptor subfamily 5 group A member 2 (Homo sapiens, UniProt O00482); format: functional, cell-based;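 also: HEK293T cells transfected with LRH-1 and a StAR promoter luciferase reporter; potency for inhibitors that lower LRH-1 driven reporter light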
# Chain of Nuclear receptor subfamily 5 group A member 2 (O00482 whole entry): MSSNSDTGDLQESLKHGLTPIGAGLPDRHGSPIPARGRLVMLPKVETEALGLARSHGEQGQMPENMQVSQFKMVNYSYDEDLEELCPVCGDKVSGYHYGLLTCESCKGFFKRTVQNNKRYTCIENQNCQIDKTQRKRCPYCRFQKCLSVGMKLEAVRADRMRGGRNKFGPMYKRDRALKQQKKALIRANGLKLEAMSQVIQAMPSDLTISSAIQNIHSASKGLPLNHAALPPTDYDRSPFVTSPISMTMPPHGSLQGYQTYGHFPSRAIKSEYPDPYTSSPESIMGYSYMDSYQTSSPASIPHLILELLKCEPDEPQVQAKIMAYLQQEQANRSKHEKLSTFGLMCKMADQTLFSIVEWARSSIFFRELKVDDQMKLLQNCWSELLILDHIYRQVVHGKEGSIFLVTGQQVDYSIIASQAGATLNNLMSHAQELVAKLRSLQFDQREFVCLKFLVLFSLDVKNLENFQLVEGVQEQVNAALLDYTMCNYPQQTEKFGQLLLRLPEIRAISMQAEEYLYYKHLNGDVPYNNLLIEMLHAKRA
structure (smiles),measurement,setting,value
O=C(Nc1ncccc1O)c1ccc(S(=O)(=O)N2CCCCCC2)cc1,IC50,[1],31.7 µM (inactive)
same,IC50,cells [2],> 67.5 µM (inactive)
NNC(=O)c1ccc(O)cc1O,EC50,[3],> 195 µM (not active)
same,EC50,[4],> 112 µM (not active)
same,AC50,[5],91.8 µM (active)
same,EC50,[6],> 112 µM (not active)
same,AC50,[7],16 µM (active)
CC1(Cc2ccc(Cl)c(Cl)c2)C(=O)Nc2ccc(S(=O)(=O)NC3CCCCC3)cc21 (stereo not given),IC50,[8],8.03 µM (active)
same,IC50,[9],> 69.5 µM (inactive)
COc1ccc(CCNC(=O)c2ccc(NC3=NC4CS(=O)(=O)CC4S3)cc2)cc1OC (stereo not given),IC50,[10],26.3 µM (inactive)
CC(C)N1C[C@H](C)[C@@H](CN(C)Cc2ccc(Oc3ccccc3)cc2)Oc2c(C(=O)Nc3ccncc3)cccc2C1=O,AC50,[11],0.167 µM (active)
CN1C(=O)C(=CN2CCN(C(=O)c3ccco3)CC2)C(=O)N(C)C1=S,EC50,cells [12],> 29.9 µM (inactive)
same,IC50,[13],> 29.9 µM (inactive)
same,IC50,cells [14],> 29.9 µM (inactive)
same,EC50,[15],4.85 µM (active)
Cc1cc(Br)c(S(=O)(=O)NCc2ccncc2)cc1C,IC50,Protein Wnt-3a,3.16 µM (active)
same,AC50,[16],3.34 µM (active)
same,AC50,[17],1.41 µM (active)
same,AC50,[18],2.37 µM (active)
Cc1cccc(C)c1OCC(O)CN1CCN(c2ccccc2)CC1 (stereo not given),EC50,[19],76.1 µM (inactive)
same,EC50,Mu-type opioid receptor,92.5 µM (inactive)
O=C(Nc1ccc(C(=O)N2CCOCC2)cc1)c1cccc([N+](=O)[O-])c1,IC50,Steroidogenic factor 1,1.09 µM (active)
same,IC50,[20],35.9 µM (inactive)
same,IC50,[21],15 µM (inactive)
CN(Cc1ccccc1)S(=O)(=O)c1ccc(Cl)c(C(=O)N2CCC2)c1,IC50,[10],32.9 µM (inactive)
CC(O)(c1cccc(F)c1)c1nc(/C=C/c2ccccc2)cs1 (stereo not given),IC50,[8],25 µM (inactive)
same,IC50,[9],> 69.5 µM (inactive)
COc1ccnc(Oc2ccccc2)c1C(=O)N=CNOCc1ccccc1F,IC50,Steroidogenic factor 1,3.65 µM (active)
same,IC50,[20],26.1 µM (inactive)
same,IC50,[21],3.99 µM (active)
